Values of other authors as cited in patent US20220000966A1, “COMPOSITION AND METHOD FOR TREATING THE LUNGS” (priority 2018, published 2022).
Like-named read-outs stand apart in the source and are kept apart here.

Key:
[1] = test system: patients with steroid-dependent bronchial asthma
lymphocytes = conditions: 1.5 μg/mL
human subjects = conditions: octanol on the neck of human subjects followed by 1,8-cineole
[2] = test system: patients with reversible obstructive ventilatory disorders
TRPA1 [3] = target: T1, TRPA1 (Homo sapiens, UniProt O75762)
human TRPM8 (hTRPM8) = human TRPM8 (hTRPM8) (Homo sapiens, UniProt Q7Z2W7)
TRPA1 [4] = target: T1, TRPA1; remark: listed apart in the source
[5] = test system: primary human bronchial epithelial cells; conditions: cigarette smoke extract, pretreatment
[6] = test system: airway inflammation in asthma; conditions: in vivo
leukemia K562 cells = conditions: in vitro and ex vivo
[7] = orally 600 mg/day, COPD patients
[8] = test system: particulate air pollution-induced inflammation; conditions: in vivo
[9] = test system: human lung epithelial cells (A-549), fibroblasts (HFL1), and lymphoma cells (U-937)
human MonoMac6 cells = conditions: cells pretreated
patients = conditions: inhaled
[10] = oral administration, healthy subjects
Guinea pigs = conditions: pretreatment
mice = conditions: injection
rats = conditions: 50 mg/kg orally each day, smoke 1 hr/day for 56 days
[11] = patients with bronchial asthma, day 4, 1,8-cineole capsules 200 mg 3 times/day
[12] = 200 mg orally 3 times per day for 12 weeks

T1 sequence (O75762 whole entry): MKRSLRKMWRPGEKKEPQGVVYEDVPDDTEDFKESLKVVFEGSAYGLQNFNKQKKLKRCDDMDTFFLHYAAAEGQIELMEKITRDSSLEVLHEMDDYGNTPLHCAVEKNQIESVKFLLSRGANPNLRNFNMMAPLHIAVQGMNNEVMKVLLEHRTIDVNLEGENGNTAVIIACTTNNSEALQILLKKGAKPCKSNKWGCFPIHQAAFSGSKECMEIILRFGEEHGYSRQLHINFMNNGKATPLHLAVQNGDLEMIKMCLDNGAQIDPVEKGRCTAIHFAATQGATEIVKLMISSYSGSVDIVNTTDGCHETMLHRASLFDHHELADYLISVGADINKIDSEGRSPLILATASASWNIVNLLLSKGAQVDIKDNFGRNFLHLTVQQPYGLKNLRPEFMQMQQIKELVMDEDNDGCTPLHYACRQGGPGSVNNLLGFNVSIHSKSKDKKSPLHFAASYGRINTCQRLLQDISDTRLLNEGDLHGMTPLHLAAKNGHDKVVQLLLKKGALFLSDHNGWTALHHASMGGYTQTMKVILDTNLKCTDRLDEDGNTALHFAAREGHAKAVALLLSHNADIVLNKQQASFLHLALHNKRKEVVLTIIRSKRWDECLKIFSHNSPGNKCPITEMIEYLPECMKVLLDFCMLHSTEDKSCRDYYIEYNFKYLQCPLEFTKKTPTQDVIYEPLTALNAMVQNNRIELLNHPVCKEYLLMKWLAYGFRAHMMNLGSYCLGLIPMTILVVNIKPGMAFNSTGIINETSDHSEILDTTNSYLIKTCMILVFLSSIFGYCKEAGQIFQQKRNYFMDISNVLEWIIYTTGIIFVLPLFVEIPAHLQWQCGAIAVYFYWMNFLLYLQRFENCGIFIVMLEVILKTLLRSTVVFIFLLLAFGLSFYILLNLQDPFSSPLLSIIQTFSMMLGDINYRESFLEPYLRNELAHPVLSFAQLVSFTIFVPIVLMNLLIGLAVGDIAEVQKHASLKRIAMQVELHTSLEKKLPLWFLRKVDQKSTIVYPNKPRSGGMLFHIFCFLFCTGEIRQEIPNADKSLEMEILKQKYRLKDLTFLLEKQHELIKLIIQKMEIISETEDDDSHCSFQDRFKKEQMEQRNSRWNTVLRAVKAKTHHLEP
Chain of human TRPM8 (hTRPM8) (Q7Z2W7 whole entry): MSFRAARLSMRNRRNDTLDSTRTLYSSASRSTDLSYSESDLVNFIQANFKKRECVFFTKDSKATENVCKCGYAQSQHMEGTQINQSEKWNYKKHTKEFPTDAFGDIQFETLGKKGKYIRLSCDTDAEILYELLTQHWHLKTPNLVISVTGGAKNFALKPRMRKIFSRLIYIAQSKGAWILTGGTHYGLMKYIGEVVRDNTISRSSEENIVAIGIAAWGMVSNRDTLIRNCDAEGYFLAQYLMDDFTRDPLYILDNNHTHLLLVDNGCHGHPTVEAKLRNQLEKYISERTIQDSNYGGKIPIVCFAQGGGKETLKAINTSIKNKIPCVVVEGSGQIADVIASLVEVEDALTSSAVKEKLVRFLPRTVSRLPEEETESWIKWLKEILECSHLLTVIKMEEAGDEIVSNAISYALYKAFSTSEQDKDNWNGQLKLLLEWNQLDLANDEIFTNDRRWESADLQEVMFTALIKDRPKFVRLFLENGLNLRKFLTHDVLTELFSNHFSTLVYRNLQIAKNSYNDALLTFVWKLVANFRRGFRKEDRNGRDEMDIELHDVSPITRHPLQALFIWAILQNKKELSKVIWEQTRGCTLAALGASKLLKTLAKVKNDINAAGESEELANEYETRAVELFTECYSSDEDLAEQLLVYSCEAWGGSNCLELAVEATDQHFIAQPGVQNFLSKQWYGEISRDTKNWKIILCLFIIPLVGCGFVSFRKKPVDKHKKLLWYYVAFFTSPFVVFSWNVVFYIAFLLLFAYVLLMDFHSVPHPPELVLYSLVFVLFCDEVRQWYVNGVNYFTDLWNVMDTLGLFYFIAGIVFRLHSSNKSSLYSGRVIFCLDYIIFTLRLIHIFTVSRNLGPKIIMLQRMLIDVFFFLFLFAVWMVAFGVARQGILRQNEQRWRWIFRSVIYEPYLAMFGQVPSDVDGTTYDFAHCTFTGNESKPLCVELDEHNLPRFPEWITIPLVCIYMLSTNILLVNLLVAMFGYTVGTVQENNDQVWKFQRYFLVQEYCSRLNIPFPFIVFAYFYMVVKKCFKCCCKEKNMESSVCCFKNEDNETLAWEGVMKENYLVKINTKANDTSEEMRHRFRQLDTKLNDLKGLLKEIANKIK

CC12CCC(CC1)C(C)(C)O2 [1,8-cineole]
change of LTB4 production from monocytes ex vivo (blood monocytes; healthy volunteers, day 4): −57.9% | change of PGE2 production from monocytes ex vivo (blood monocytes; healthy volunteers, day 4): −42.7% | change of LTB4 production from monocytes ex vivo (blood monocytes; [11]): −40.3% | change of PGE2 production from monocytes ex vivo (blood monocytes; [11]): −31.3% | reduction in daily prednisolone dosage tolerated [1, 12]: 36% | reduction in daily prednisolone dosage, mean [1, 12]: 3.75 mg | patients who achieved a reduction of oral steroids ([1]; 1,8-cineole group): Twelve of 16 | inhibition of production of TNF-α, IL-1β, LTB4 and TXB2 (monocytes): dose-dependent and highly significant inhibition | inhibition of IL-1β production in lymphocytes (lymphocytes): 84% | irritation of octanol (human subjects): significantly reduced | change of airway resistance ([2]; treatment duration of eight weeks): −21% | change of airway resistance ([2]; treatment duration of one week): −23% | action on hTRPA1 (TRPA1 [3]): antagonist | TRPM8 activation (human TRPM8 (hTRPM8)): activates

C=C1CC/C=C(\C)CC[C@@H]2[C@@H]1CC2(C)C [BCP, β-caryophyllene]
action on TRPA1 (TRPA1 [4]): agonist

CC(C)c1ccc(NC(=O)Cn2cnc3c2c(=O)n(C)c(=O)n3C)cc1 [HC-030031]
Ca^2+ influx [5]: decrease in Ca^2+ influx was similar

CCNC(=O)CC[C@H](N)C(=O)O [L-theanine]
inflammatory cells in bronchoalveolar lavage fluid (BALF) [6]: dramatically attenuated | production of IgE, MCP-1, IL-4, IL-5, IL-13, TNF-α and INF-γ in BALF [6]: significantly decreased | migration and invasion of A549 cells (human lung cancer A549): significantly inhibited | growth of human lung cancer A549 cells (human lung cancer A549; in vitro and ex vivo): significantly suppressed | growth of leukemia K562 cells (leukemia K562 cells): significantly suppressed

CC(=O)N[C@@H](CS)C(=O)O [N-acetyl cysteine]
sputum eosinophil cationic protein concentrations and adhesion of polymorphonuclear leukocytes [7]: reduced | Ca^2+ influx [5]: prevented | particulate air pollution-induced inflammation [8]: effectively prevented

COc1ccc2cc3[n+](cc2c1OC)CCc1cc2c(cc1-3)OCO2 [berberine]
inhibition of inflammatory agents-induced cytokine production [9]: dose-dependent and cell type-independent

COc1cc(O)cc(O)c1C(=O)/C=C/c1ccccc1 [cardamonin]
cardiomyocyte constriction (cardiomyocyte): nor did it impair

N[C@@H](CCC(=O)N[C@@H](CS)C(=O)NCC(=O)O)C(=O)O [glutathione, γ-L-glutamyl-L-cysteinyl-glycine]
period for which epithelial lung fluid glutathione remained elevated (aerosol nebulizer): 2 h | glutathione epithelial lung fluid concentration (aerosol nebulizer, 4 mL of 150 mg/mL over 25 minutes): about 337 μM | glutathione concentration increase in epithelial lung fluid (intravenously administered 600 mg): no measurable glutathione concentration increases | cigarette smoke-induced reduction in HDAC levels (human MonoMac6 cells): reversed | IL-8 release (human MonoMac6 cells; cigarette smoke extract): significantly inhibited | FEV1 change from baseline (patients): −19% | induced breathlessness (patients): three | induced cough (patients): four | total pulmonary resistance change from baseline (patients): +61% | increase of plasma glutathione levels [10]: ineffective

CC1CCC(C(C)C)C(O)C1 (centres unmarked) [menthol, reference compound]
TRPA1 activation (TRPA1 [3]): activated | TRPM8 activation (human TRPM8 (hTRPM8)): activation

CC1=CC(=O)C(C(C)C)=CC1=O [thymoquinone]
TNF-α level (Guinea pigs): significantly reduced | bronchoalveolar lavage fluid Leukotriene B4 (LTB4) levels (Guinea pigs): did not significantly change | malondialdehyde level (Guinea pigs): significantly reduced | neutrophil elastase (NE) level (Guinea pigs): significantly reduced | chronic inflammatory changes (mice): reduction

epigallocatechin-3-gallate
TNF-α level (Guinea pigs): significantly reduced | bronchoalveolar lavage fluid Leukotriene B4 (LTB4) levels (Guinea pigs): significantly reduced | glutathione peroxidase activity (Guinea pigs): increase | myeloperoxidase in lung tissue homogenate (Guinea pigs): significantly reduced | neutrophil elastase (NE) level (Guinea pigs): significantly reduced | superoxide dismutase activity (Guinea pigs): not significantly affected | cigarette smoke-induced oxidative stress, neutrophilic inflammation, airway mucus production and collagen deposition (rats): ameliorated
